# From paper PMC4850295, “Using a Genetically Encoded Sensor to Identify Inhibitors of Toxoplasma gondii Ca^2+ Signaling” (The Journal of Biological Chemistry, 2016)
# Values joined by “and” are separate entries in the source; they are usually repeats but may differ in a detail not shown here. Equal entries are not always repeated.
# System: T1, GCaMP5-expressing T. gondii
# T1 construct: whole extracellular parasites expressing GCaMP5 Ca2+ sensor
# Design: species or system GCaMP5-expressing Toxoplasma gondii, extracellular; GCaMP5 fluorescence (cytosolic Ca2+) after 100 uM zaprinast in compound-pretreated extracellular parasites, background-subtracted, relative to zaprinast alone
# Conditions: 100 uM zaprinast stimulation, 10 min pretreatment, mean of two replicates, 0.23 h, 10 µM
# How it was run: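 Read-out is GCaMP5 calcium fluorescence (ex 485/em 525 nm) taken 4 min after 100 μM zaprinast at 37 °C, following 10 min compound pretreatment at 10 μM in duplicate biological replicates. Values are basal-subtracted fold change versus zaprinast-only controls; parasites held extracellular in Ringer's solution.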
row,SMILES,fold change in fluorescence relative to zaprinast alone
1,COC(=O)Nc1nc2cc(Oc3cccc(NC(=O)Nc4cc(C(F)(F)F)ccc4F)c3)ccc2[nH]1 [GW659386A],1.116 and 1.187

# Same assay, conditions: 100 uM zaprinast stimulation; 10 min pretreatment; mean of two replicates; 0.23 h
row,SMILES,fold change in fluorescence relative to zaprinast alone
1,[O-][S+]1CCN(Cc2ccc(-c3ccc4ncnc(Nc5ccc(OCc6ccccc6)c(F)c5)c4c3)o2)CC1 [GW576924A],0.1384
2,COc1ccccc1Nc1ncc(-c2ccccc2)o1 [GW577921A],0.9668
3,CN1CCN(Cc2cccc(-c3ccc4c(Nc5ccc(Oc6ccccc6)cc5)ccnc4c3)c2)CC1 [GW578342X],1.603
4,COc1cc(/C=N/Nc2ncnc3[nH]ncc23)ccc1O [GW578748X],0.8277
5,Cc1ccc(Nc2ccnc(Nc3ccc4c(c3)CS(=O)(=O)C4)n2)cc1O [GW579362A],1.38
6,CS(=O)(=O)CCNCc1ccc(-c2ccc3ncnc(Nc4ccc(OCc5ccccc5)c(Br)c4)c3c2)o1 [GW580496A],1.191
7,CCS(=O)(=O)c1ccc(OC)c(Nc2ncc(-c3cccc(OC)c3)o2)c1 [GW580509X],1.14
8,NC(=O)c1ccc2c(-c3ccnc(NCCCO)n3)c(-c3ccc(F)cc3)nn2c1 [GW581744X],0.8342
9,Cc1ccc(Nc2ccnc(Nc3ccc(C)c(F)c3)n2)cc1O [GW582868A],1.057
10,[O-][S+]1CCN(Cc2ccc(-c3ccc4ncnc(Nc5ccc(OCc6ccccc6)c(Cl)c5)c4c3)o2)CC1 [GW583373A],0.2727
11,NS(=O)(=O)c1ccc(NC=C2C(=O)Nc3ccc4ncsc4c32)cc1 [GW589933X],1.196
12,COC(=O)Nc1nc2ccc(Oc3ccc(NC(=O)Nc4cccc(Cl)c4)cc3)cc2[nH]1 [GW589961A],1.185
13,CCS(=O)(=O)c1ccc(OC)c(Nc2ncc(-c3ccc(F)cc3)o2)c1 [GW591947A],1.203
14,COc1ccc(NC(=O)c2ccc(-c3cc(-c4nnc(C)o4)ccc3C)cc2)cc1 [GW595885X],1.221
15,FC(F)(F)c1ccc(-c2cc(-c3cn[nH]c3-c3ccccn3)ccn2)cc1 [GW599550X],1.459
16,Cc1nnc(-c2ccc(C)c(-c3ccc(C(=O)Nc4cccc(C#N)c4)cc3)c2)o1 [GW607117X],1.107
17,Cc1nnc(-c2ccc(C)c(-c3ccc(C(=O)O)cc3)c2)o1 [GW608005X],1.249
18,COc1cc(Nc2nccc(Nc3ccc4c(C)n[nH]c4c3)n2)cc(OC)c1OC [GW612286X],0.875
19,O=S(=O)(CCOCc1ccc(-c2ccc3ncnc(Nc4ccc(OCc5cccc(F)c5)c(Cl)c4)c3c2)o1)c1ccccc1 [GW615311X],1.258
20,CS(=O)(=O)CCN(CC#N)Cc1ccc(-c2ccc3ncnc(Nc4ccc(OCc5cccc(F)c5)c(Cl)c4)c3c2)o1 [GW616030X],1.169
21,CCS(=O)(=O)c1ccc(OC)c(Nc2ncc(-c3cccc(C(C)=O)c3)o2)c1 [GW621431X],1.216
22,CN1CCN(CCCNc2nccc(-c3c(-c4ccc(F)cc4)nn4cc(C(F)(F)F)ccc34)n2)CC1 [GW621581X],0.8628
23,CCCN(CCS(C)(=O)=O)Cc1ccc(-c2ccc3ncnc(Nc4ccc(OCc5cccc(F)c5)c(Cl)c4)c3c2)o1 [GW621823A],0.6108
24,CN1CCN(CCCNc2nccc(-c3c(-c4ccc(F)cc4)nn4cc(C(N)=O)ccc34)n2)CC1 [GW622475X],0.5684

row,SMILES,fold change in fluorescence relative to zaprinast alone
1,COc1cc(Nc2ncc(-c3ccccc3)o2)cc(OC)c1OC [GW627512B],0.9208
2,OCCCNc1nccc(-c2c(-c3cccc(C(F)(F)F)c3)nn3cc(C(F)(F)F)ccc23)n1 [GW630813X],1.109
3,Cc1cccc(Nc2ncc(-c3ccccc3)o2)c1 [GW632046X],1.202
4,COc1ccc(COc2ccc(Cc3cnc(N)nc3N)cc2OC)cc1 [GW632580X],1.155
5,O=S(=O)(CCNCc1ccc(-c2ccc3ncnc(Nc4ccc(OCc5cccc(F)c5)c(Cl)c4)c3c2)o1)c1ccccc1 [GW633459A],1.016
6,CC(C)S(=O)(=O)N1CCN(Cc2ccc3c(c2)nc(NC(=O)c2ccsc2)n3C[C@H](O)c2ccccc2)CC1 [GW635815X],1.196
7,N#CCc1ccc(Nc2nccc(Nc3ccc(Oc4ccccc4)cc3)n2)cc1 [GW639905A],1.192
8,COc1ccc(-c2cc3c(N)ncnc3o2)cc1 [GW642138X],1.142
9,COc1cc(C=NNc2ncnc3c2cnn3Cc2ccccc2)ccc1O [GW643971X],1.09
10,Fc1cccc(COc2ccc(Nc3ncncc3C#Cc3ccccc3)cc2Cl)c1 [GW651576X],1.149
11,COC(=O)Nc1nc2ccc(Oc3ccc(NC(=O)Nc4cc(C(F)(F)F)ccc4F)cc3)cc2[nH]1 [GW654607A],1.325
12,NC(=O)c1cccc(Nc2nccc(Nc3ccc(Oc4c(Cl)cccc4Cl)c(Cl)c3)n2)c1 [GW659009A],1.248
13,Nc1ccc(C#Cc2cncnc2Nc2ccc(OCc3cccc(F)c3)c(Cl)c2)cc1 [GW659893X],0.972
14,O=C(NCCCN1CCOCC1)c1cccc(Nc2nccc(Nc3ccc(Oc4ccccc4)cc3)n2)c1 [GW663929X],1.429
15,N#Cc1cnc2cc(-c3cnc(CNCCN4CCOCC4)s3)ccc2c1Nc1ccc(Oc2ccccc2)cc1 [GW664114X],1.528
16,CCc1cccc(NC(=O)Nc2ccc(Oc3ccc4nc(NC(=O)OC)[nH]c4c3)cc2)c1 [GW673715X],1.098
17,CCS(=O)(=O)c1ccc(OC)c(Nc2ncc(-c3cccc(-c4ccccc4F)c3)o2)c1 [GW678313X],1.071
18,Cc1cccc(-c2cc(-c3cn[nH]c3-c3ccccn3)ccn2)c1 [GW679395X],0.9312
19,FC(F)(F)c1ccccc1-c1cc(-c2cn[nH]c2-c2ccccn2)ccn1 [GW679396X],0.8259
20,Cc1ccccc1-c1cc(-c2cn[nH]c2-c2ccccn2)ccn1 [GW680061X],0.8106
21,C#Cc1cccc(Nc2ncnc3ccc(OCCCCNCCS(C)(=O)=O)cc23)c1 [GW680191X],1.038
22,COc1cccc(-c2cc(-c3cn[nH]c3-c3ccccn3)ccn2)c1 [GW680338X],0.8974
23,COC(=O)Nc1nc2ccc(Oc3ccc(CC(=O)Nc4cc(C(F)(F)F)ccc4F)cc3)cc2[nH]1 [GW680903X],1.756
24,COC(=O)Nc1nc2ccc(S(=O)(=O)c3ccc(NC(=O)Nc4cc(C(F)(F)F)ccc4F)cc3)cc2[nH]1 [GW680908A],1.018

# Same assay, conditions: 0.23 h, 10 µM
row,SMILES,% of control remaining
1,COc1cc(/C=N/Nc2ncnc3c2cnn3C(C)C)ccc1O [GW644007X],1.177
